# Assay results reported in patent US5434246A, “Parathyroid hormone derivatives” (Takeda Chemical Industries, Ltd., priority 1992, dated 1995).
# Square brackets hold non-standard residues; d marks the D form. Ends that are not written are not given here. Peptide text beside a SMILES is read from it. hCit = NC(=O)NCCCC[C@H](N)C(=O)O; Orn = NCCC[C@H](N)C(=O)O
# Biological target: T1, PTH receptor (Mus musculus, UniProt P41593)
# T1 construct: a mouse cranial bone-derived osteoblast-like cell strain, MC3T3-EI cells; endogenous in cells; host or cells: MC3T3-E1 mouse osteoblast-like cells
# T1 sequence (P41593 27-591): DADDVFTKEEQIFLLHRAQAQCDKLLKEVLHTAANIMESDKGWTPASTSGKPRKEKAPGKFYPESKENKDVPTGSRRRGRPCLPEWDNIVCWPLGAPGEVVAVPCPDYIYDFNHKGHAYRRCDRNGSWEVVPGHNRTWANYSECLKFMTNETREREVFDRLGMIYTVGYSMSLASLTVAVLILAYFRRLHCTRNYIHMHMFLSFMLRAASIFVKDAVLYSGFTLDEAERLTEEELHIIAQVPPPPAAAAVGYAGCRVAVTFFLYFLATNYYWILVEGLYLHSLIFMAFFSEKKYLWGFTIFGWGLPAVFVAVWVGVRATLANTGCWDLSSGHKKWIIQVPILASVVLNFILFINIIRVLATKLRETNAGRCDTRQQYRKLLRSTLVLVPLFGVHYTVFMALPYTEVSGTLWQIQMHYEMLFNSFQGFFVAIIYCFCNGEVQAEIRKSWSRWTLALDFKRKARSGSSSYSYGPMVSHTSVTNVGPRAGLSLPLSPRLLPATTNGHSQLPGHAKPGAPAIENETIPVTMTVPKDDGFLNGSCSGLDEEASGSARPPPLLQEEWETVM
# Experiment: cAMP production in MC3T3-EI osteoblast-like cells (biological activity of PTH(1-34) derivatives)
# Assay type: cell-based
# Conditions: 0.01-100 nM derivative, room temperature 30 minutes, hPTH(1-34) standard = 1.00
# Description: The biological activity of the PTH (1-34) derivatives was evaluated by a modified version of the method reported by Shigeno et al. in The Journal of Biological Chemistry 263, 18369-18377 (1988). A culture solution (Hank's solution, containing 20 mM N-2-hydroxyethylpiperazine-N'-2-ethanesulfonic acid-(HEPES), 0.1% bovine serum albumin and 0.5 mM isobutylmethyl-xanthine) containing a 0.01, 0.1, 1, 10 or 100 nM derivative was added in an amount of 100 μl to a mouse cranial bone-derived osteoblast-like cell strain, MC3T3-EI cells, cultivated on a 96-well multiplate (Nunclon, Nunc), followed by reaction at room temperature for 30 minutes. After addition of 100 μl of 0.2N hydrochloric acid, the mixture was immersed in boiling water for 2.5 minutes, and cyclic adenosine monophosphate (cAMP) produced by a PTH receptor was extracted from the cells. The total cAMP in the culture solution and the cells was assayed using a commercial radioimmunoassay kit (cyclic AMP [^125 I] kit "Du Pont-Daiichi", Daiichi Kagaku Yakuhin).
row,Compound,"Biological Activity, Represented by Relative Activity to hPTH(1-34)"
1,"CC[C@H](C)[C@H](NC(=O)[C@H](CCC(=O)O)NC(=O)[C@H](CO)NC(=O)[C@@H](NC(=O)[C@@H](N)CO)C(C)C)C(=O)N[C@@H](CCC(N)=O)C(=O)N[C@@H](CC(C)C)C(=O)N[C@@H](CCSC)C(=O)N[C@@H](Cc1c[nH]cn1)C(=O)N[C@@H](CC(N)=O)C(=O)N[C@@H](CC(C)C)C(=O)NCC(=O)N[C@@H](CCCCN)C(=O)N[C@@H](Cc1c[nH]cn1)C(=O)N[C@@H](CC(C)C)C(=O)N[C@@H](CCCCNC(N)=O)C(=O)N[C@@H](CO)C(=O)N[C@@H](CCSC)C(=O)N[C@@H](CCC(=O)O)C(=O)N[C@@H](CCCNC(=N)N)C(=O)N[C@H](C(=O)N[C@@H](CCC(=O)O)C(=O)N[C@@H](Cc1c[nH]c2ccccc12)C(=O)N[C@@H](CC(C)C)C(=O)N[C@@H](CCCNC(=N)N)C(=O)N[C@@H](CCCCN)C(=O)N[C@@H](CCC(N)=O)C(=O)N[C@@H](CC(C)C)C(=O)N[C@@H](CCC(N)=O)C(=O)N[C@@H](CC(=O)O)C(=O)N[C@H](C(=O)N[C@@H](Cc1c[nH]cn1)C(=O)N[C@@H](CC(N)=O)C(=O)N[C@@H](Cc1ccccc1)C(=O)O)C(C)C)C(C)C [[Hci^16,Gln^27]hPTH(1-34)] (H-SVSEIQLMHNLGKHL[hCit]SMERVEWLRKQLQDVHNF-OH)",1.54
2,"CC[C@H](C)[C@H](NC(=O)[C@H](CCC(=O)O)NC(=O)[C@H](CO)NC(=O)[C@@H](NC(=O)[C@@H](N)CO)C(C)C)C(=O)N[C@@H](CCC(N)=O)C(=O)N[C@@H](CC(C)C)C(=O)N[C@@H](CCSC)C(=O)N[C@@H](Cc1c[nH]cn1)C(=O)N[C@@H](CC(N)=O)C(=O)N[C@@H](CC(C)C)C(=O)NCC(=O)N[C@@H](CCCCN)C(=O)N[C@@H](Cc1c[nH]cn1)C(=O)N[C@@H](CC(C)C)C(=O)N[C@@H](CCCN)C(=O)N[C@@H](CO)C(=O)N[C@@H](CCSC)C(=O)N[C@@H](CCC(=O)O)C(=O)N[C@@H](CCCNC(=N)N)C(=O)N[C@H](C(=O)N[C@@H](CCC(=O)O)C(=O)N[C@@H](Cc1c[nH]c2ccccc12)C(=O)N[C@@H](CC(C)C)C(=O)N[C@@H](CCCNC(=N)N)C(=O)N[C@@H](CCCCN)C(=O)N[C@@H](CCC(N)=O)C(=O)N[C@@H](CC(C)C)C(=O)N[C@@H](CCC(N)=O)C(=O)N[C@@H](CC(=O)O)C(=O)N[C@H](C(=O)N[C@@H](Cc1c[nH]cn1)C(=O)N[C@@H](CC(N)=O)C(=O)N[C@@H](Cc1ccccc1)C(=O)O)C(C)C)C(C)C [[Orn^16,Gln^27]hPTH(1-34), [Orn^16,Gln^27]hPTH(1-45)] (H-SVSEIQLMHNLGKHL[Orn]SMERVEWLRKQLQDVHNF-OH)",1.82
3,CC[C@H](C)[C@H](NC(=O)[C@H](CCC(=O)O)NC(=O)[C@H](CO)NC(=O)[C@@H](NC(=O)[C@@H](N)CO)C(C)C)C(=O)N[C@@H](CCC(N)=O)C(=O)N[C@@H](CC(C)C)C(=O)N[C@@H](CCSC)C(=O)N[C@@H](Cc1c[nH]cn1)C(=O)N[C@@H](CC(N)=O)C(=O)N[C@@H](CC(C)C)C(=O)NCC(=O)N[C@@H](CCCCN)C(=O)N[C@@H](Cc1c[nH]cn1)C(=O)N[C@@H](CC(C)C)C(=O)N[C@H](C(=O)N[C@@H](CO)C(=O)N[C@@H](CCSC)C(=O)N[C@@H](CCC(=O)O)C(=O)N[C@@H](CCCNC(=N)N)C(=O)N[C@H](C(=O)N[C@@H](CCC(=O)O)C(=O)N[C@@H](Cc1c[nH]c2ccccc12)C(=O)N[C@@H](CC(C)C)C(=O)N[C@@H](CCCNC(=N)N)C(=O)N[C@@H](CCCCN)C(=O)N[C@@H](CCCCN)C(=O)N[C@@H](CC(C)C)C(=O)N[C@@H](CCC(N)=O)C(=O)N[C@@H](CC(=O)O)C(=O)N[C@H](C(=O)N[C@@H](Cc1c[nH]cn1)C(=O)N[C@@H](CC(N)=O)C(=O)N[C@@H](Cc1ccccc1)C(=O)O)C(C)C)C(C)C)[C@@H](C)O [[Thr^16]hPTH(1-34)],1.74
4,CC[C@H](C)[C@H](NC(=O)[C@H](CCC(=O)O)NC(=O)[C@H](CO)NC(=O)[C@@H](NC(=O)[C@@H](N)CO)C(C)C)C(=O)N[C@@H](CCC(N)=O)C(=O)N[C@@H](CC(C)C)C(=O)N[C@@H](CCSC)C(=O)N[C@@H](Cc1c[nH]cn1)C(=O)N[C@@H](CC(N)=O)C(=O)N[C@@H](CC(C)C)C(=O)NCC(=O)N[C@@H](CCCCN)C(=O)N[C@@H](Cc1c[nH]cn1)C(=O)N[C@@H](CC(C)C)C(=O)N[C@@H](CC(N)=O)C(=O)N[C@@H](CO)C(=O)N[C@@H](CCSC)C(=O)N[C@@H](CCC(=O)O)C(=O)N[C@@H](CCCNC(=N)N)C(=O)N[C@H](C(=O)N[C@@H](CCC(=O)O)C(=O)N[C@@H](Cc1c[nH]c2ccccc12)C(=O)N[C@@H](CC(C)C)C(=O)N[C@@H](CCCNC(=N)N)C(=O)N[C@@H](CCCCN)C(=O)N[C@H](C(=O)N[C@@H](CC(C)C)C(=O)N[C@@H](CCC(N)=O)C(=O)N[C@@H](CC(=O)O)C(=O)N[C@H](C(=O)N[C@@H](Cc1c[nH]cn1)C(=O)N[C@@H](CC(N)=O)C(=O)N[C@@H](Cc1ccccc1)C(=O)O)C(C)C)[C@@H](C)O)C(C)C [[Thr^27]hPTH(1-34)],0.96
5,"CC[C@H](C)[C@H](NC(=O)[C@H](CCC(=O)O)NC(=O)[C@H](CO)NC(=O)[C@@H](NC(=O)[C@@H](N)CO)C(C)C)C(=O)N[C@@H](CCC(N)=O)C(=O)N[C@@H](CC(C)C)C(=O)N[C@@H](CCSC)C(=O)N[C@@H](Cc1c[nH]cn1)C(=O)N[C@@H](CC(N)=O)C(=O)N[C@@H](CC(C)C)C(=O)NCC(=O)N[C@@H](CCCCN)C(=O)N[C@@H](Cc1c[nH]cn1)C(=O)N[C@@H](CC(C)C)C(=O)N[C@@H](CC(N)=O)C(=O)N[C@@H](CO)C(=O)N[C@@H](CCSC)C(=O)N[C@@H](CCC(=O)O)C(=O)N[C@@H](CCCNC(=N)N)C(=O)N[C@H](C(=O)N[C@@H](CCC(=O)O)C(=O)N[C@@H](Cc1c[nH]c2ccccc12)C(=O)N[C@@H](CC(C)C)C(=O)N[C@@H](CCCNC(=N)N)C(=O)N[C@@H](CCCCN)C(=O)N[C@@H](CCCCN)C(=O)N[C@@H](CC(C)C)C(=O)N[C@@H](CCC(N)=O)C(=O)N[C@@H](CC(=O)O)C(=O)N[C@H](C(=O)N[C@@H](Cc1c[nH]cn1)C(=O)N[C@@H](CC(N)=O)C(=O)N[C@@H](Cc1ccccc1)C(=O)O)C(C)C)C(C)C [hPTH(1-34), reference compound]",1.00
6,"SVSEIQLMHNLGKHKKKMERVEWLRKHLQDVHNF [[Lys^15,16,17,His^27]hPTH (1-34), [Lys^15,16,17,His^27]hPTH(1-34)]",7.47
7,"SVSEIQLMHNLGKHKKKMERVEWLRKKLQDVHNF [[Lys^15,16,17]hPTH (1-34), [Lys^15,16,17]hPTH(1-34)]",7.62
8,"SVSEIQLMHNLGKHKKSMERVEWLRKHLQDVHNF [[Lys^15,16,His^27]hPTH(1-34)]",1.49
9,"SVSEIQLMHNLGKHLKDMERVEWLRKKLQDVHNF [[Lys^16,Asp^17]hPTH(I-34), [Lys^16 Asp^17]hPTH(1-3)]",1.24
10,"SVSEIQLMHNLGKHLKKMERVEWLRKKLQDVHNF [[Lys^16,17]hPTH(1-34)]",8.85
11,"SVSEIQLMHNLGKHLNSMERVEWLQQQLQDVHNF [[Gln^25,26,27]hPTH (1-34), [Gln^25,26,27]hPTH(1-34)]",0.41
12,"SVSEIQLMHNLGKHLNSMERVEWLRQQLQDVHNF [[Gln^26,27]hPTH(1-34)]",1.19
13,"SVSEIQLMHNLGKHLNSMERVEWLRRRLQDVHNF [[Arg^26,27]hPTH (1-34), [Arg^26,27]hPTH(1-34)]",0.98
14,"SVSEIQLMHNLGKHLRSMERVEWLRKQLQDVHNF [[Arg^16,Gln^27]hPTH(1-34)]",2.16
15,"SVSEIQLMHNLGKKKKKMERVEWLRKKLQDVHNF [[Lys^14,15,16,17]hPTH (1-34), [Lys^14,15,16,17]hPTH(1-34)]",6.39
